According to ChEMBL document CHEMBL2150905, “Discovery of Disubstituted Imidazo[4,5-b]pyridines and Purines as Potent TrkA Inhibitors” (ACS Med Chem Lett, 2012):
Values after ≈ are worked out from the molar mass of the structure shown.

Columns and labels:
[1] = physchem; conditions: buffer
Description: Aqueous solubility of the compound

[2] = in vitro; conditions: human, plasma
Description: Fraction unbound in human plasma

[3] = Oral bioavailability in beagle dog at 10 mg/kg; assay type: ADME, organism-based, Canis lupus familiaris; conditions: in vivo
[4] = test system: NIH3T3; test: Antitumor activity against 3T3 cells overexpressing constitutively active TRKA allografted in CrTac:Ncr-Foxn1nu mouse assessed as tumor stasis at 5 mg/kg, po BID for 7 days; assay type: functional
[5] = Half life in beagle dog at 10 mg/kg, po and 2 mg/kg, iv; assay type: ADME, organism-based, Canis lupus familiaris; conditions: in vivo
[6] = in vitro; conditions: rat, hepatocytes
Description: Intrinsic clearance in rat hepatocytes assessed per million cells by LC/MS/MS analysis

[7] = in vivo; conditions: Han Wistar, rat, iv, 3 mg/kg
Description: Clearance in Han Wistar rat at 10 mg/kg, po and 3 mg/kg, iv

[8] = Clearance in beagle dog at 10 mg/kg, po and 2 mg/kg, iv; assay type: ADME, organism-based, Canis lupus familiaris; conditions: in vivo
[9] = test system: NIH3T3; test: animal or person; conditions: Mus musculus, NIH3T3, po, 168 h, read-out: TGI
Description: Antitumor activity against 3T3 cells overexpressing constitutively active TRKA allografted in CrTac:Ncr-Foxn1nu mouse assessed as tumor growth inhibition at 1 mg/kg, po BID for 7 days

[10] = molecular target: Voltage-gated inwardly rectifying potassium channel KCNH2 (Homo sapiens, UniProt Q12809)
[11] = Oral bioavailability in Han Wistar rat at 10 mg/kg; assay type: ADME, organism-based; conditions: in vivo
[12] = Half life in Han Wistar rat at 10 mg/kg, po and 3 mg/kg, iv; assay type: ADME, organism-based; conditions: in vivo
[13] = test system: Mus musculus; test: Toxicity in 3T3 cells overexpressing constitutively active TRKA allografted CrTac:Ncr-Foxn1nu mouse assessed as weight loss at 1 to 5 mg/kg, po BID for 7 days; assay type: organism-based, NIH3T3; design: dose 1-5 mg/kg, route oral; conditions: in vivo, 168 h
[14] = molecular target: T1, Vascular endothelial growth factor receptor 3 (Homo sapiens, UniProt P35916); test: Inhibition of FLT4 at 10 uM
[15] = molecular target: T2, Fibroblast growth factor receptor 1 (Homo sapiens, UniProt P11362); test: Inhibition of FGFR1
[16] = molecular target: Proto-oncogene tyrosine-protein kinase receptor Ret (Homo sapiens, UniProt P07949); test: Inhibition of Ret
[17] = molecular target: T3, ALK tyrosine kinase receptor (Homo sapiens, UniProt Q9UM73); test: Inhibition of ALK
[18] = molecular target: T4, Focal adhesion kinase 1 (Homo sapiens, UniProt Q05397); test: Inhibition of FAK
[19] = molecular target: Muscle, skeletal receptor tyrosine-protein kinase (Homo sapiens, UniProt O15146); test: Inhibition of MuSk
[20] = molecular target: T5, Mitogen-activated protein kinase 14 (Homo sapiens, UniProt Q16539); test: Inhibition of SAPK2a
[21] = molecular target: Receptor-type tyrosine-protein kinase FLT3 (Homo sapiens, UniProt P36888); test: Inhibition of Flt3
[22] = molecular target: T6, Serine/threonine-protein kinase WNK3 (Homo sapiens, UniProt Q9BYP7); test: Inhibition of WNK3
[23] = molecular target: T7, Tyrosine-protein kinase ABL1 (Homo sapiens, UniProt P00519); test: Inhibition of Abl
[24] = molecular target: Phosphorylase b kinase gamma catalytic chain, liver/testis isoform (Homo sapiens, UniProt P15735); test: Inhibition of PhKg2
[25] = molecular target: T8, Mitogen-activated protein kinase kinase kinase 9 (Homo sapiens, UniProt P80192); test: Inhibition of MLK1
[26] = molecular target: T9, Tyrosine-protein kinase JAK2 (Homo sapiens, UniProt O60674); test: Inhibition of JAK2 at 10 uM
[27] = molecular target: T10, High affinity nerve growth factor receptor (Homo sapiens, UniProt P04629); conditions: 10 uM
Description: Inhibition of TrkA at 10 uM

[28] = molecular target: Testis-specific serine/threonine-protein kinase 2 (Homo sapiens) (UniProt Q96PF2); conditions: 10 uM
Description: Inhibition of TSSK2 at 10 uM

[29] = molecular target: T11, Proto-oncogene tyrosine-protein kinase Src (Homo sapiens, UniProt P12931); test: Inhibition of cSrc at 10 uM
[30] = molecular target: T8, Mitogen-activated protein kinase kinase kinase 9; test: Inhibition of MLK1 at 10 uM
[31] = molecular target: T1, Vascular endothelial growth factor receptor 3; test: Inhibition of FLT4
[32] = molecular target: T7, Tyrosine-protein kinase ABL1; conditions: 10 uM
Description: Inhibition of Abl at 10 uM

[33] = molecular target: Tyrosine-protein kinase Lck (Homo sapiens, UniProt P06239); test: Inhibition of Lck
[34] = molecular target: T3, ALK tyrosine kinase receptor; test: Inhibition of ALK at 10 uM
[35] = molecular target: T12, Tyrosine-protein kinase Fgr (Homo sapiens, UniProt P09769); test: Inhibition of Fgr
[36] = molecular target: T5, Mitogen-activated protein kinase 14; test: Inhibition of SAPK2a at 10 uM
[37] = molecular target: T9, Tyrosine-protein kinase JAK2; test: Inhibition of JAK2
[38] = molecular target: T13, Serine/threonine-protein kinase SIK1 (Homo sapiens, UniProt P57059); test: Inhibition of SIK
[39] = molecular target: Tyrosine-protein kinase ITK/TSK (Homo sapiens, UniProt Q08881); test: Inhibition of Itk
[40] = molecular target: T6, Serine/threonine-protein kinase WNK3; conditions: 10 uM
Description: Inhibition of WNK3 at 10 uM

[41] = molecular target: T13, Serine/threonine-protein kinase SIK1; test: Inhibition of SIK at 10 uM
[42] = molecular target: Receptor-type tyrosine-protein kinase FLT3 (Homo sapiens) (UniProt P36888); test: Inhibition of Flt3 at 10 uM
[43] = molecular target: T4, Focal adhesion kinase 1; test: Inhibition of FAK at 10 uM
[44] = molecular target: T11, Proto-oncogene tyrosine-protein kinase Src; test: Inhibition of cSrc
[45] = molecular target: T10, High affinity nerve growth factor receptor; test: Inhibition of TrkA
[46] = molecular target: T12, Tyrosine-protein kinase Fgr; test: Inhibition of Fgr at 10 uM
[47] = molecular target: T14, Tyrosine-protein kinase BTK (Homo sapiens, UniProt Q06187); test: Inhibition of BTK
[48] = molecular target: Phosphorylase b kinase gamma catalytic chain, liver/testis isoform (Homo sapiens) (UniProt P15735); test: Inhibition of PhKg2 at 10 uM
[49] = molecular target: Testis-specific serine/threonine-protein kinase 2 (Homo sapiens, UniProt Q96PF2); test: Inhibition of TSSK2
[50] = molecular target: Tyrosine-protein kinase ITK/TSK (Homo sapiens) (UniProt Q08881); test: Inhibition of Itk at 10 uM
[51] = molecular target: T2, Fibroblast growth factor receptor 1; test: Inhibition of FGFR1 at 10 uM
[52] = molecular target: T14, Tyrosine-protein kinase BTK; test: Inhibition of BTK at 10 uM
[53] = molecular target: BDNF/NT-3 growth factors receptor (Homo sapiens, UniProt Q16620); test: Inhibition of TrkB
[54] = test system: NIH3T3; test: Antitumor activity against 3T3 cells overexpressing constitutively active TRKA allografted in CrTac:Ncr-Foxn1nu mouse assessed as tumor growth delay time at 25 mg/kg, po BID for 7 days; assay type: functional
[55] = test system: NIH3T3; test: Antitumor activity against 3T3 cells overexpressing constitutively active TRKA allografted in CrTac:Ncr-Foxn1nu mouse assessed as tumor regression at 25 mg/kg, po BID for 7 days; assay type: functional
[56] = test system: Mus musculus; test: Toxicity in 3T3 cells overexpressing constitutively active TRKA allografted CrTac:Ncr-Foxn1nu mouse assessed as weight loss at 1 to 25 mg/kg, po BID for 7 days; assay type: organism-based, NIH3T3; design: dose 1-25 mg/kg, route oral; conditions: in vivo, 168 h
[57] = test system: NIH3T3; test: Antitumor activity against 3T3 cells overexpressing constitutively active TRKA allografted in CrTac:Ncr-Foxn1nu mouse assessed as tumor regression at 5 mg/kg, po BID for 7 days; assay type: functional

Voltage-gated inwardly rectifying potassium channel KCNH2, sequence (Q12809 whole entry): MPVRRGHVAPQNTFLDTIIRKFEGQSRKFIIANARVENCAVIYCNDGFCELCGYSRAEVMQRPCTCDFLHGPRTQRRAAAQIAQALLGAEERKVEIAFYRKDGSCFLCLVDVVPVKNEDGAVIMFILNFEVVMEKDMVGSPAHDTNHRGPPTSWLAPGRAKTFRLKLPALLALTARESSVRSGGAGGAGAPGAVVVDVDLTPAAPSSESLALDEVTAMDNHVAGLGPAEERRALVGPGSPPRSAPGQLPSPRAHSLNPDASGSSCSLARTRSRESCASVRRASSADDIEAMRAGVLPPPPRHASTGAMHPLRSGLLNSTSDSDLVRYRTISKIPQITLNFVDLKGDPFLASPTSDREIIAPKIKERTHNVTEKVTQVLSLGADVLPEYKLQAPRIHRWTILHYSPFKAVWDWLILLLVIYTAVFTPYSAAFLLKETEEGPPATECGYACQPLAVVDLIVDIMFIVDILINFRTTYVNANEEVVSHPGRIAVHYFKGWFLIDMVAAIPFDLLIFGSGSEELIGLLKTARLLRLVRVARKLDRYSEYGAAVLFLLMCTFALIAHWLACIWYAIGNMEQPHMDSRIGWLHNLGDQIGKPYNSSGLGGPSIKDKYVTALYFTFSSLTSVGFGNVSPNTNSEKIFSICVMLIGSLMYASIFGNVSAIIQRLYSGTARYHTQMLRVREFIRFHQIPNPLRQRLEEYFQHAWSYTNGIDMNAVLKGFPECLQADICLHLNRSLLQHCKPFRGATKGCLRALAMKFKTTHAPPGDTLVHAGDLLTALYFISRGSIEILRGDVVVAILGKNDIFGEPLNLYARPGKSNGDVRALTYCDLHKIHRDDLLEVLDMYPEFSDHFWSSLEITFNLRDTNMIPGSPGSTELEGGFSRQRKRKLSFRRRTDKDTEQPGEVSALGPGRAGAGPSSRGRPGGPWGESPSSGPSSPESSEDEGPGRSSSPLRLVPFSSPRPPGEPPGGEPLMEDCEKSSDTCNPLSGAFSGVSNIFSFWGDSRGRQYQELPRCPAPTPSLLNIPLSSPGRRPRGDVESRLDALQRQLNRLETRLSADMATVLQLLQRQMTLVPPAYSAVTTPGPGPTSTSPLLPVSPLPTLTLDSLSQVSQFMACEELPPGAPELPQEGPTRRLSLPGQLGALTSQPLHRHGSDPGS
T1 sequence (P35916 whole entry): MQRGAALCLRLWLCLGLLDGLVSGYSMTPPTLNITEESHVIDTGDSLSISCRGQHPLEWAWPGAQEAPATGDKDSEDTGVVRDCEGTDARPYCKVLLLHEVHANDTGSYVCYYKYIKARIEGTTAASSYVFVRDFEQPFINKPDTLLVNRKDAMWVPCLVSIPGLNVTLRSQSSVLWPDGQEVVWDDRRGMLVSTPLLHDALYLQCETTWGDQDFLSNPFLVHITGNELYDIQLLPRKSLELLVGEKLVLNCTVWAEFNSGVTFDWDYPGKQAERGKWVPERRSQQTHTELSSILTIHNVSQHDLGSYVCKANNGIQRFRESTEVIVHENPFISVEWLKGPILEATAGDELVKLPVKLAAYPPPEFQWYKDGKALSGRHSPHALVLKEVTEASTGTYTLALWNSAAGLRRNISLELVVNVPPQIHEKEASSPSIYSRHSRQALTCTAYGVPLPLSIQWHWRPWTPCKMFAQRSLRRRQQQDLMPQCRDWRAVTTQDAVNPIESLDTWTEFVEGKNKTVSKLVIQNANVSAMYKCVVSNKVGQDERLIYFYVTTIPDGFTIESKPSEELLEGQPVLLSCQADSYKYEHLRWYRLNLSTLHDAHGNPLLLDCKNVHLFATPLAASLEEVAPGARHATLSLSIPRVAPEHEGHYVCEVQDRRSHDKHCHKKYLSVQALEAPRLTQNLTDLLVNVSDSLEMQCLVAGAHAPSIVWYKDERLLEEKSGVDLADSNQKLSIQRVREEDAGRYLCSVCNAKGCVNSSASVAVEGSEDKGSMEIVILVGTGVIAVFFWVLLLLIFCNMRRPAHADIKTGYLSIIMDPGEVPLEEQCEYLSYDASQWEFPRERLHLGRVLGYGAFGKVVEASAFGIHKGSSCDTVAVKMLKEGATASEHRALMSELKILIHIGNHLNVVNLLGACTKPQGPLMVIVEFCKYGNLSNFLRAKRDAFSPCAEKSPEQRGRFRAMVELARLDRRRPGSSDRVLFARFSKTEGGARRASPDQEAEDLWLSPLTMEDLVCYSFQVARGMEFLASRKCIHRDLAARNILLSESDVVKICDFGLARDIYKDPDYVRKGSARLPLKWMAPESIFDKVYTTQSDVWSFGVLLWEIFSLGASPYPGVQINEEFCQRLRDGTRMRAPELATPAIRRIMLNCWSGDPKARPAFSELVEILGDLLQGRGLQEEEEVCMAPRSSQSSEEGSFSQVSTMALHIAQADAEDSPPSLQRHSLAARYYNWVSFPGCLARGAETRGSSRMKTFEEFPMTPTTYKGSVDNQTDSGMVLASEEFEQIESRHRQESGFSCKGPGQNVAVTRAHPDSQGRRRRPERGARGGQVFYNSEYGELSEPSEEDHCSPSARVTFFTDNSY
T13 sequence (P57059 whole entry): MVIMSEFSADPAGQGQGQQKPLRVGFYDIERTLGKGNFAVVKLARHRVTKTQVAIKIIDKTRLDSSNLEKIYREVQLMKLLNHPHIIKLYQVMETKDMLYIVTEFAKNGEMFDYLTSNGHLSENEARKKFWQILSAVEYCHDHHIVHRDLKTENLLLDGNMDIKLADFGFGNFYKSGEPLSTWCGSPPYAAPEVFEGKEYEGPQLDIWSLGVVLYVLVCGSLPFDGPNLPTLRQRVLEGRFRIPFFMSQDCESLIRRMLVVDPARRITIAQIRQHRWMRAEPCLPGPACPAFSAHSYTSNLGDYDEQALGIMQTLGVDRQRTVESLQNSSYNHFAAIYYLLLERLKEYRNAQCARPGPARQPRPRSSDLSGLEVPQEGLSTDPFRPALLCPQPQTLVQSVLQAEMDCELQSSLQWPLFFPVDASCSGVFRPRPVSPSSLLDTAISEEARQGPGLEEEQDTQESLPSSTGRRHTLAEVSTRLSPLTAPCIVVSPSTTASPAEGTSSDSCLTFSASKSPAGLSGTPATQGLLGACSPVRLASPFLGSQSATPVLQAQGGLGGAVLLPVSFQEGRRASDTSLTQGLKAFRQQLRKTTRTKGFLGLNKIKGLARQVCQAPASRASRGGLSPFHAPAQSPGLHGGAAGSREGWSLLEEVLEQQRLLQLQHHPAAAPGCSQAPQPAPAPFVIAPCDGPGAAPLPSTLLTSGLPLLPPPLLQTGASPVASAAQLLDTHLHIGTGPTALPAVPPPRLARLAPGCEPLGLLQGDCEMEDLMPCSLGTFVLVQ
T7 sequence (P00519 whole entry, canonical isoform): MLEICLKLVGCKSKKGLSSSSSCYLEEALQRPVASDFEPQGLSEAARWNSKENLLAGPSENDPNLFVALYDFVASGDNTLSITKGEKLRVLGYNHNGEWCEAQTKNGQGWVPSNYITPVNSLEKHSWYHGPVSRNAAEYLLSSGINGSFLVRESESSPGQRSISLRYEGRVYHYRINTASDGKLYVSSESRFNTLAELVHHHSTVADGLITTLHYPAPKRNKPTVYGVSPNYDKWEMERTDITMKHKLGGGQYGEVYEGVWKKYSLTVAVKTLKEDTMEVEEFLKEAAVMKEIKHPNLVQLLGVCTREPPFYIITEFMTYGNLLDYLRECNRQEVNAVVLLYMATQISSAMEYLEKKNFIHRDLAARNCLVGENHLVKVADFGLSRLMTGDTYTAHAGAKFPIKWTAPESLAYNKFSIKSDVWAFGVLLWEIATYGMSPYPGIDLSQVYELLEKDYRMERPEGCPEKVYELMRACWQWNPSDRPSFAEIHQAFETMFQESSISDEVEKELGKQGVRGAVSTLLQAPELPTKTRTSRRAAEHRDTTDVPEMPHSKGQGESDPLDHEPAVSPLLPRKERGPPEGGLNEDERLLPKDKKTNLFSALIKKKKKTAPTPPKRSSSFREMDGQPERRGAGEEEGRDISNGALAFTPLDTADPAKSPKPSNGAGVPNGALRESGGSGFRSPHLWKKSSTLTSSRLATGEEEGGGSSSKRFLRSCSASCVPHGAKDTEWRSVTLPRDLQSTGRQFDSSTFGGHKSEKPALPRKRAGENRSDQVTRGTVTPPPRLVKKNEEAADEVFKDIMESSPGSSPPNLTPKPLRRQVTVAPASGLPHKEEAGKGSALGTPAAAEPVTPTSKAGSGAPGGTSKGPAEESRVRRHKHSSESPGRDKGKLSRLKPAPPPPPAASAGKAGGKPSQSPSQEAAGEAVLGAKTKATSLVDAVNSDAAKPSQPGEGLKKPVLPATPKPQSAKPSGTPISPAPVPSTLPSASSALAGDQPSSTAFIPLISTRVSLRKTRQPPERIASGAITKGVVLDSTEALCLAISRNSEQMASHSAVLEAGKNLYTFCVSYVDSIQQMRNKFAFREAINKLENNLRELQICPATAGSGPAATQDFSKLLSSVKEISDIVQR
T5 sequence (Q16539 whole entry): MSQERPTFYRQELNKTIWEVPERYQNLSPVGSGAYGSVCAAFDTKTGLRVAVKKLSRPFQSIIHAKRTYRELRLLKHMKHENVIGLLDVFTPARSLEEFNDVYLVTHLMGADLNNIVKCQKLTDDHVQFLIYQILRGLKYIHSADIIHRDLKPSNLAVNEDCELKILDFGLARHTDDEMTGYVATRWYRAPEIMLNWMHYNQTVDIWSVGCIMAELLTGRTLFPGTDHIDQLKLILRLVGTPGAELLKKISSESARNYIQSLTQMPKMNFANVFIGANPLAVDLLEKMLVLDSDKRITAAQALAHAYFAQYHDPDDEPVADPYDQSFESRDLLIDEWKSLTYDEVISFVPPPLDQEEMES

Work on `CC(C)Oc1cc(-n2cnc3ccc(N[C@@H](CO)c4ccc(F)cn4)nc32)n[nH]1` yielded a solubility [1] of 250 µM (≈ 99.4 µg/mL), a fraction unbound [2] of 0.081 and a bioavailability [3] of 17%. For the same molecule, the Activity [4] was -47%, the half-life [5] was 1 h and the hepatocyte CLint [6] was 13 µL/min/1e6 cells. It also gave a clearance [7] of 46 mL/min/kg, a clearance [8] of 15.2 mL/min/kg and an inhibition in vivo at 1 mg/kg [9] of 12%. It also gave an IC50 [10] of 52000 nM, a bioavailability [11] of 29% and a half-life [12] of 2.3 h. The Activity [13] was < 5%.
`COc1cc(Nc2nc3c(cc2F)ncn3[C@@H](CO)c2ccc(F)cn2)n[nH]1` gave a solubility [1] of 150 µM (≈ 58.1 µg/mL), a hepatocyte CLint [6] of 29 µL/min/1e6 cells and a clearance [7] of 33 mL/min/kg. For the same molecule, the IC50 [10] was > 32000 nM, the bioavailability [11] was 41% and the half-life [12] was 3.2 h.
`CC(C)Oc1cc(-n2cnc3cnc(N[C@@H](C)c4ncc(F)cn4)nc32)n[nH]1` gave a solubility [1] of 480 µM (≈ 184 µg/mL), a fraction unbound [2] of 0.31 and a hepatocyte CLint [6] of 24 µL/min/1e6 cells. For the same molecule, the clearance [7] was 130 mL/min/kg, the IC50 [10] was > 32000 nM and the bioavailability [11] was 29%. It also gave a half-life [12] of 3.8 h.
`C[C@H](Nc1ccc2ncn(-c3cc(C4CC4)[nH]n3)c2n1)c1ncc(F)cn1` showed a solubility [1] of 590 µM (≈ 215 µg/mL), a fraction unbound [2] of 0.16 and a hepatocyte CLint [6] of 48 µL/min/1e6 cells. For the same molecule, the clearance [7] was 39 mL/min/kg, the bioavailability [11] was 33% and the half-life [12] was 1.2 h.
With `CC(C)Oc1cc(-n2cnc3ccc(N[C@@H](C)c4ccc(F)cn4)nc32)n[nH]1` the inhibition [14] was > 30%, the IC50 [15] was 8.7 nM and the fraction unbound [2] was 0.06. For the same molecule, the IC50 [16] was < 100 nM, the IC50 [17] was 34.1 nM and the IC50 [18] was 17.2 nM. For the same molecule, the IC50 [19] was < 100 nM, the IC50 [20] was 13.4 nM and the IC50 [21] was 2.1 nM. For the same molecule, the IC50 [22] was 99.8 nM, the IC50 [23] was 1.2 nM and the IC50 [24] was 6.1 nM. The IC50 [25] was 44.3 nM, the inhibition [26] was > 30% and the inhibition [27] was > 30%. For the same molecule, the inhibition [28] was > 30%, the inhibition [29] was > 30% and the hepatocyte CLint [6] was 42 µL/min/1e6 cells. For the same molecule, the inhibition [30] was > 30%, the clearance [7] was 41 mL/min/kg and the IC50 [31] was 64 nM. For the same molecule, the inhibition [32] was > 30%, the IC50 [33] was < 100 nM and the inhibition [34] was > 30%. The IC50 [35] was 2.2 nM, the inhibition [36] was > 30% and the IC50 [10] was > 32000 nM. It also gave an IC50 [37] of 68.3 nM, an IC50 [38] of 5.5 nM and an IC50 [39] of 72.2 nM. For the same molecule, the inhibition [40] was > 30%, the bioavailability [11] was 6.7% and the inhibition [41] was > 30%. The inhibition [42] was > 30%, the inhibition [43] was > 30% and the IC50 [44] was 18.2 nM. The IC50 [45] was 1.4 nM, the inhibition [46] was > 30% and the IC50 [47] was 3.5 nM. The inhibition [48] was > 30%, the IC50 [49] was 30.6 nM and the inhibition [50] was > 30%. For the same molecule, the half-life [12] was 0.97 h, the inhibition [51] was > 30% and the inhibition [52] was > 30%. For the same molecule, the IC50 [53] was < 100 nM.
In the case of `CC(C)Oc1cc(Nc2nc3c(cc2F)ncn3[C@@H](CO)c2ccc(F)cn2)n[nH]1`, the solubility [1] is reported as 220 µM (≈ 91.4 µg/mL), the fraction unbound [2] is reported as 0.058 and the Time [54] is reported as 4 days. The Activity [55] was -63%, the hepatocyte CLint [6] was 31 µL/min/1e6 cells and the clearance [7] was 51 mL/min/kg. For the same molecule, the Activity [56] was < 5%, the Activity [57] was -51% and the inhibition in vivo at 1 mg/kg [9] was 30%. The bioavailability [11] was 54% and the half-life [12] was 1.2 h.
With `Cc1cc(-n2cnc3ccc(N[C@@H](C)c4ncc(F)cn4)nc32)n[nH]1` the solubility [1] was > 1000 µM, the fraction unbound [2] was 0.39 and the clearance [7] was 45 mL/min/kg. For the same molecule, the IC50 [10] was > 32000 nM, the bioavailability [11] was 92% and the half-life [12] was 0.82 h.
